Source: US20250381273A1, “Augmenting Mitochondria in Immune Cells for Improved Cancer Immunotherapy” (LEIBNIZ-INSTITUT FÜR IMMUNTHERAPIE (LIT), priority 2022, published 2025)

Assays:
[1] = test system: mouse Mito-DsRed BMSCs or CD8+ T cells; assay: Inhibitor drug treatment study, mouse co-culture; format: cell-based; conditions: 1-10 μM, data not shown
Experimental: (§1) For pharmacological inhibition studies, both mouse and human Mito-DsRed BMSCs or CD8+ T cells were treated with 1-10 μM of farnesyltransferase/geranylgeranyltransferase 1 inhibitor (L-778123) (Biomol) incubated separately in their respective basal media for 7 hrs before or during co-culture. Cell viability of the different drug treatments was determined using the Trypan Blue exclusion test and quantified manually using a hemacytometer. All experiments were performed on at least 3-6 biological replicates/donors per condition.

[2] = test system: human Mito-DsRed BMSCs or CD8+ T cells; assay: Inhibitor drug treatment study, human co-culture; format: cell-based; conditions: 1-10 μM, data not shown
Experimental: as §1

[3] = test system: nanotube-mediated mitochondria transfer; conditions: Nature Nanotechnology (2022) 17, 98-106; cited from earlier work

## N#Cc1ccc(Cn2cncc2CN2CCN(c3cccc(Cl)c3)C(=O)C2)cc1 [L-788,123]
[1]
  mitochondrial transfer in co-culture: confirmed that TNTs is a primary mediator of mitochondrial transfer
[2]
  mitochondrial transfer in co-culture: confirmed that TNTs is a primary mediator of mitochondrial transfer
[3]
  nanotube-mediated mitochondria transfer: partially block
